System: cell adhesion molecules (ICAM-1 and VCAM-1)
Assay: Real-time PCR, mRNA expression of cell adhesion molecules in diabetic mice
Format: in vivo
Conditions: cortex and hippocampus, GSNO supplemented diabetic animals
Method: Male laca mice weighing between 28-32 g were procured from the Central Animal House, Panjab University, Chandigarh. The animals were acclimatized and were fed with standard pellet diet and water ad libitum. The experimental protocols were approved by the Institutional Ethics Committee and were conducted according to Indian National Science Academy (INSA) guidelines for the use and care of experimental animals. […] Animals were assessed weekly for development of diabetic encephalopathy in terms of memory deficits. […]
PCR Total RNA was extracted from microvessels obtained from brain tissue using TriReagent®. […] The concentration of RNA obtained was determined by 260/280 nm ratio using a Nanodrop™ Spectrophotometer (Nanodrop™ 1000, Thermo Scientific®, Waltham, USA). The integrity and overall quality of RNA was evaluated using agarose gel electrophoresis. […] The data obtained was analyzed by the LightCycler 480 Software, Version 1.5. […] Glyceraldehyde-3-phosphate dehydrogenase was used as the reference gene and the relative gene expression was determined using delta-delta Ct method as described by Pfaffl et al., (2002).

## N[C@@H](CCC(=O)N[C@@H](CSN=O)C(=O)NCC(=O)O)C(=O)O [GSNO, S-nitrosoglutathione]
  mRNA expression of ICAM-1: comparable to control levels
